Drawing on ChEMBL document CHEMBL5331068, “Briarane-type diterpenoids, the inhibitors of osteoclast formation by interrupting Keap1-Nrf2 interaction and activating Nrf2 pathway” (Eur J Med Chem, 2023), this text covers Activity and inhibition for one compound.

The subject of test [1] is BMDM. As to the kind of experiment: Anti-osteoclastogenesis activity in RANKL-induced C57BL/6 mouse BMDM cells assessed as suppression of early stage osteoclast differentiation at 10 uM incubated from day 1 to day 3 in the presence of M-CSF by TRAP-staining based microscopic analysis. Format: functional, cell-based. The note with it: time 2.0 day.
Test [2] concerns BMDM. Briefly: Anti-osteoclastogenesis activity in RANKL-induced C57BL/6 mouse BMDM cells assessed as inhibition of NFATc1 translocation into nuclei incubated for 3 days by DAPI staining based confocal microscopic analysis. Type of test: functional, cell-based. The note with it: time 3.0 day.
Test [3] has as its system BMDM. As to the kind of experiment: Anti-osteoclastogenesis activity in RANKL-induced C57BL/6 mouse BMDM cells assessed as suppression of late stage osteoclast differentiation at 10 uM incubated from day 3 to day 5 in the presence of M-CSF by TRAP-staining based microscopic analysis. Type of test: functional, cell-based. The following applies: time 2.0 day.
The test system of test [4] is BMDM. As to the kind of experiment: Anti-osteoclastogenesis activity in RANKL-induced C57BL/6 mouse BMDM cells assessed as decrease in bone resorption pit area incubated for 10 days in the presence of M-CSF by inverted microscopic analysis. Format: functional, cell-based. The following applies: dose 1-10 µM, time 10.0 day.
In another test the test system is RAW264.7. As to the kind of experiment: Anti-osteoclastogenesis activity in RANKL-induced mouse RAW264.7 cells transfected with Nrf2 siRNA assessed as increase in HO-1 expression level incubated for 3 days by Western blot analysis. Type of test: functional, cell-based. The following applies: time 3.0 day.
In test [5] the target is Transcription factor p65 (Mus musculus) (UniProt Q04207). As to the kind of experiment: Inhibition of RANKL-induced p65 NF-kappaB phosphorylation in C57BL/6 mouse BMDM cells incubated for 60 mins by Western blot analysis. Type of test: cell-based.
A short description of test [6]: Inhibition of RANKL-induced ERK phosphorylation in C57BL/6 mouse BMDM cells transfected with Nrf2 siRNA at 10 uM incubated for 60 mins by Western blot analysis. Type of test: cell-based.
For test [7], the system named is BMDM. As to the kind of experiment: Anti-osteoclastogenesis activity in RANKL-induced C57BL/6 mouse BMDM cells assessed as downregulation of MMP-9 mRNA expression at 5 to 10 uM by qRT-PCR analysis. Format: functional, cell-based. The following applies: dose 5-10 µM.
For test [8], the target named is Kelch-like ECH-associated protein 1/Nuclear factor erythroid 2-related factor 2 (Mus musculus) (UniProt Q60795+Q9Z2X8). Briefly: Disruption of Nrf2 -Keap1 protein-protein interaction in RANKL-induced C57BL/6 mouse BMDM cells incubated for 24 hrs by Western blot based co-immunoprecipitation analysis. Format: cell-based.
The test system of test [9] is BMDM. Briefly: Anti-osteoclastogenesis activity in RANKL-induced C57BL/6 mouse BMDM cells assessed as inhibition of NFATc1 protein level at 5 to 10 uM in the presence of M-CSF by Western blot analysis. Format: functional, cell-based. The note with it: dose 5-10 µM.
In test [10] the target is T1, Nuclear factor erythroid 2-related factor 2 (Mus musculus) (UniProt Q60795).
T1 sequence (whole entry): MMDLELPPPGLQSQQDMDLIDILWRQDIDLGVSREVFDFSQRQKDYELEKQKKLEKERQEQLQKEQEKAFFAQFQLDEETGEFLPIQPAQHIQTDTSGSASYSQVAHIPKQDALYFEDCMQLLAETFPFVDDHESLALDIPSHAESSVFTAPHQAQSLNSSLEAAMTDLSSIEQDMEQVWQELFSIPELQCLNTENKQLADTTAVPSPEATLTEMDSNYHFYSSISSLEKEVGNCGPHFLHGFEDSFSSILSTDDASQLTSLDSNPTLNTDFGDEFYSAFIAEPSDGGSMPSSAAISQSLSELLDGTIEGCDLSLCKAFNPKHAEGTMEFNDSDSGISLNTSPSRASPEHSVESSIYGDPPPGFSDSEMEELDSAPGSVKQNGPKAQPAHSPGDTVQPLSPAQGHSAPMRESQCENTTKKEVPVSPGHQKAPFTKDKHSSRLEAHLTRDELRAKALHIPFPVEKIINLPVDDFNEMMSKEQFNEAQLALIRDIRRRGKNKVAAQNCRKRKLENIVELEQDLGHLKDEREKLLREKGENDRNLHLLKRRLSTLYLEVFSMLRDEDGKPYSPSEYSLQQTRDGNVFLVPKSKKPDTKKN
Briefly: Stabilization of Nrf2 in mouse RAW264.7 cells assessed as decrease in Nrf2 ubiquitination at 10 uM incubated for 48 hrs by Western blot based Co-immunoprecipitation analysis. Format: cell-based.

For test [11], the system named is BMDM. Briefly: Anti-osteoclastogenesis activity in C57BL/6 mouse BMDM cells assessed as inhibition of RANKL-induced osteoclastogenesis at 10 uM incubated for 7 days in the presence of M-CSF by TRAP-staining based microscopic analysis relative to control. Format: functional. The note with it: C57BL/6, BMDM, 168 h, time 7 day.
For test [12], the target named is T2, NF-kappa-B inhibitor alpha (Mus musculus) (UniProt Q9Z1E3).
T2 sequence (whole entry): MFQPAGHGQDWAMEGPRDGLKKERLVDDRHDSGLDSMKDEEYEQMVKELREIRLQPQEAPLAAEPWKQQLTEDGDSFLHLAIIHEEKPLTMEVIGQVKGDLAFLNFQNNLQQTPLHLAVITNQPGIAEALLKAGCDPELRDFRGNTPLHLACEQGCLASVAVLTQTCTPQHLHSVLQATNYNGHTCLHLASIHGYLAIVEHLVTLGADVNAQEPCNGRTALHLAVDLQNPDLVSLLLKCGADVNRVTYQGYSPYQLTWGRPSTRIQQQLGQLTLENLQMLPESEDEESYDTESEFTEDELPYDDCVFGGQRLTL
As to the kind of experiment: Inhibition of RANKL-induced IkappaBalpha phosphorylation in C57BL/6 mouse BMDM cells transfected with Nrf2 siRNA at 10 uM incubated for 60 mins by Western blot analysis. Type of test: cell-based.

For test [13], the system named is BMDM. Briefly: Anti-osteoclastogenesis activity in RANKL-induced C57BL/6 mouse BMDM cells assessed as increase in HO-1 expression at 5 to 10 uM in the presence of M-CSF by Western blot analysis. Format: functional, cell-based. The note with it: dose 5-10 µM.
Test [14] addresses T2, NF-kappa-B inhibitor alpha (Mus musculus). Briefly: Inhibition of RANKL-induced IkappaBalpha phosphorylation in C57BL/6 mouse BMDM cells incubated for 60 mins by Western blot analysis. Format: cell-based.
In test [15] the target is Keap1/Nrf2 (Homo sapiens) (UniProt Q16236+Q14145). As to the kind of experiment: Disruption of 16mer biotinylated Nrf2 (unknown origin)-Keap1 kelch domain (unknown origin) protein-protein interaction upto 100 uM by Biolayer Interferometry assay.
Test [16] in a line: Inhibition of RANKL-induced ERK phosphorylation in C57BL/6 mouse BMDM cells incubated for 60 mins by Western blot analysis. Format: cell-based.
The subject of test [17] is BMDM. As to the kind of experiment: Anti-osteoclastogenesis activity in RANKL-induced C57BL/6 mouse BMDM cells assessed as downregulation of TRAP mRNA expression at 5 to 10 uM by qRT-PCR analysis. Format: functional, cell-based. The following applies: dose 5-10 µM.
In test [18] the test system is BMDM. As to the kind of experiment: Anti-osteoclastogenesis activity in RANKL-induced C57BL/6 mouse BMDM cells assessed as downregulation of NFATc1 mRNA expression at 5 to 10 uM by qRT-PCR analysis. The following applies: dose 5-10 µM. Format: functional, cell-based.
The subject of test [19] is BMDM. As to the kind of experiment: Anti-osteoclastogenesis activity in RANKL-induced C57BL/6 mouse BMDM cells assessed as downregulation of cathepsin K mRNA expression at 5 to 10 uM by qRT-PCR analysis. Type of test: functional, cell-based. The note with it: dose 5-10 µM.
In test [20] the test system is BMDM. Briefly: Inhibition of osteoclast migration in RANKL-induced C57BL/6 mouse BMDM cells at 10 uM incubated for 48 hrs in the presence of M-CSF by TRAP staining based wound healing assay. Type of test: functional, cell-based.

Calls of active or inactive are those of the source. No cut-off for these calls is given here.

Keap1/Nrf2 (Homo sapiens), sequence (Q14145 whole entry, looked up, the tested form may be a part): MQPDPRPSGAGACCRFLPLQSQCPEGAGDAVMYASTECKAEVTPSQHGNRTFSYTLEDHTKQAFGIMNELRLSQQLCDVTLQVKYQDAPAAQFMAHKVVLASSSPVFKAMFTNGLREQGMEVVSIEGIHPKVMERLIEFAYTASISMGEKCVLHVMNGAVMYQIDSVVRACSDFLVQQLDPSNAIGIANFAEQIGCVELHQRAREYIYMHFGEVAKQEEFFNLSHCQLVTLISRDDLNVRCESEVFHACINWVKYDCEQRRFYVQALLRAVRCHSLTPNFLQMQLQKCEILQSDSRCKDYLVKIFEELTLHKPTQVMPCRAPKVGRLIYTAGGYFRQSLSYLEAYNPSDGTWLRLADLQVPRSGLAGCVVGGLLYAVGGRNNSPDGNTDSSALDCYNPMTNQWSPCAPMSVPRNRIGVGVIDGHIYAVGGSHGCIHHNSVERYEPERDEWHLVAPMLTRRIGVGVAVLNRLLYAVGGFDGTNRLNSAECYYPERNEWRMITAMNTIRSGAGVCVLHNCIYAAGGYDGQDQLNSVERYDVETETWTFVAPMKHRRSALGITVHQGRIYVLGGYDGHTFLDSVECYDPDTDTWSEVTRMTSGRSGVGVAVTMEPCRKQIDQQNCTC
Keap1/Nrf2 (Homo sapiens), sequence (Q16236 whole entry, looked up, the tested form may be a part): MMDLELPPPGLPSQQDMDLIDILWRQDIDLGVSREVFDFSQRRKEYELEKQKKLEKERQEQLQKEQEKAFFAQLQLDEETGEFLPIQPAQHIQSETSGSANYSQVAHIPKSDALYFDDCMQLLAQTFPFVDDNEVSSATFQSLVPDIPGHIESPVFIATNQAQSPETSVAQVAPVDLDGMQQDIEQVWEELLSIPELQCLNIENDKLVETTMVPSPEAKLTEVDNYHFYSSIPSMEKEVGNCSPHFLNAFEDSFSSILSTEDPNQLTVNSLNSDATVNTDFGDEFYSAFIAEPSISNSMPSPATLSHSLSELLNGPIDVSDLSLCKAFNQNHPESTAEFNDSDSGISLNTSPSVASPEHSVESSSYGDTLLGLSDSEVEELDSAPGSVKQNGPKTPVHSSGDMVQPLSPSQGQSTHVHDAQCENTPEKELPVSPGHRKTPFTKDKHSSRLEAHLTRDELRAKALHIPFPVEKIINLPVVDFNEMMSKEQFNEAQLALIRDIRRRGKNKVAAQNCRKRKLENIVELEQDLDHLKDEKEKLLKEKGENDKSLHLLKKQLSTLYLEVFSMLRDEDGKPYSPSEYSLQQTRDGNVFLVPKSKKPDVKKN
Transcription factor p65 (Mus musculus), sequence (Q04207 whole entry): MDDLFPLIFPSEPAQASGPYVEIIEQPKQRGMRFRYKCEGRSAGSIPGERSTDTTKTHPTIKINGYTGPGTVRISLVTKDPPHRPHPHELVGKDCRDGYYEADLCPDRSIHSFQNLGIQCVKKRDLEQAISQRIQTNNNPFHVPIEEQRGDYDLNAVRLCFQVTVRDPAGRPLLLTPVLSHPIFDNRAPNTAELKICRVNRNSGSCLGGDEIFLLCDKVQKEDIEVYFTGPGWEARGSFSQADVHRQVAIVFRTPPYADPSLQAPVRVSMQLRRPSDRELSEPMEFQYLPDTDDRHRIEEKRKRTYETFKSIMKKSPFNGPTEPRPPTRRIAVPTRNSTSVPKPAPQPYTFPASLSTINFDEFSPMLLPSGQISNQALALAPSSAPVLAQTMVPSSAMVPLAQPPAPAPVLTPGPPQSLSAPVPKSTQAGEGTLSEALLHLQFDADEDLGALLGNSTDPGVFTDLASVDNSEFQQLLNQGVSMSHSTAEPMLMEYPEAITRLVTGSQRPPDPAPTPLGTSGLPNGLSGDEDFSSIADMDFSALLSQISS
Kelch-like ECH-associated protein 1/Nuclear factor erythroid 2-related factor 2 (Mus musculus), sequence (Q9Z2X8 whole entry, looked up, one chain of several): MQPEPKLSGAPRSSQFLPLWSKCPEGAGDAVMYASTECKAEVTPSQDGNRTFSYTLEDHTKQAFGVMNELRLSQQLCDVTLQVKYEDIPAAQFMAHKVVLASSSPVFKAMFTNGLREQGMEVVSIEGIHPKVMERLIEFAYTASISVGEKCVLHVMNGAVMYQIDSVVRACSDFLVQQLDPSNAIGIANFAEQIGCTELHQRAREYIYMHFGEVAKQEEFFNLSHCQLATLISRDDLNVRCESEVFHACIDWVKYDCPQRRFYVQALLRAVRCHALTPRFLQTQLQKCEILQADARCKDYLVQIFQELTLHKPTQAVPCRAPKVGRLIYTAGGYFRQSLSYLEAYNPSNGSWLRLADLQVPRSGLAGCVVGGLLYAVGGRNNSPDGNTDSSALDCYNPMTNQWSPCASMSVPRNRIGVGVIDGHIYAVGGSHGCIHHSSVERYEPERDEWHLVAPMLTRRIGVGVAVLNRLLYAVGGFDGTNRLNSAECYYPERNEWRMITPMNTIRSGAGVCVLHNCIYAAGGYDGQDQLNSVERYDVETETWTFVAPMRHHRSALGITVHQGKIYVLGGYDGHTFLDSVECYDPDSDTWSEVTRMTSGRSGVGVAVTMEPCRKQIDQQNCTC

As to `C=C1[C@H]2O[C@]3([C@@H](C)C(=O)O[C@H]3[C@H]1Cl)[C@@H](OC(C)=O)[C@H]1[C@]3(CC[C@H](OC(C)=O)[C@]1(C)[C@@H](OC(C)=O)[C@@H]2OC(C)=O)CO3`, the result (in the test on BMDM [1]; in the test with BMDM [2]; in the test on BMDM [3]; with BMDM [7]; in test [8]; in the test with BMDM [9]) was Active. Further, the result (in test [10]; in the test on BMDM [13]; in test [15]; in the test on BMDM [17]; in the test with BMDM [18]; in the test on BMDM [19]) was Active. The Activity result in the test on BMDM [4] was “Dose-Dependent Effect”. Also, the outcome in the test with RAW264.7 was inactive. The inhibition result (in test [5]; in test [14]; in test [16]; with BMDM [20]) was “Active” in each case. The inhibition result in test [6] and in test [12] was “inactive” throughout. Also, in the test on BMDM [11], the inhibition at 10 µM turned out to be 100%.
